The test system of data set [1] is panel of other molecular targets. The protocol:
The results are expressed as a percent inhibition of control specific binding [100-(measured specific binding/control specific binding*100)]. The IC50 values and Hill coefficients (nH) were determined by non-linear regression analysis of the competition curves generated with mean replicate values using Hill equation curve fitting performed with software developed at Cerep (Hill software) and validated by comparison with data generated by the commercial software SigmaPlot® 4.0.

Data set [2] is described as follows: Solubility test (PBS, HPLC-UV). The format is physicochemical. As to conditions: kinetic from dmso stock. The protocol:
Calibration standards at 1, 5, 10, 50, 100, 200 and 300 μM were prepared in DMSO from a 20 mM stock. […] The plate was covered and shook at 150 rotations per min for 90 min. At the end of 90 min, samples were filtered using MultiScreen HTS vacuum Manifold assembly and the filtrate was collected onto the acceptor plate. An aliquot (150 μL) of the filtrate from the above 96-well acceptor plate was transferred into HPLC vials and analyzed by HPLC-UV. Verapamil, ketoconazole and reserpine were used as high, medium and low soluble reference standards respectively.

A short description of data set [3]: Plasma and liver studies after 14 days of repeated oral dose. The data set is classed as in vivo, C57/BL6 mice. As to conditions: C57/BL6, mouse; for Kp at 14 days: liver/plasma, read-out: Liver to Plasma Ratio.
Data set [4] concerns middle cerebral artery occlusion (MCAO). The data set is described as follows: MCAO ischemia-reperfusion model, infarct volume (TTC staining). The data set is classed as in vivo, SD male rats.
Data set [5] has the same test system. The data set is described as follows: Neurological behavioral evaluation in MCAO model (18-point system). The format is in vivo, SD male rats. As to conditions: 48 h and day 7, rat MCAO, vs Edaravone. The source says: The animals were individually assessed based on the scoring method described in Table 18.
Data set [6] has as its system Iba1+CD11b+ double positive microglia. The data set is described as follows: Immunohistochemistry analysis on microglia and leukocytes markers in MCAO brains. The format is in vivo, rats. As to conditions: 10 mg/kg, day 7, brain areas CA1, CPu, M1 and S1, vs MCAO or vehicle groups. How it is done: The animals were anaesthetized with isoflurane (RWD Life Science), perfused and fixed with 4% PFA (Sinopharm Chemical Reagent). The brain tissues were further soaked in 4% PFA […] at 4° C. overnight and then treated with a gradient of sucrose solutions (20-30%, Sinopharm Chemical Reagent) before being embedded with OCT (Leica) and frozen at −80° C. For immunofluorescence staining, the brain slices from primary somatosensory cortex (S1), primary motor cortex (M1), field CA1 of hippocampus (CA1) and caudate putamen (striatum, CPu) were heated for 30 min and then washed with 0.01 M PBS (pH=7.2-7.4, 5 min×3). After washing, the sections were blocked with 0.3% TritonX-100 (Solarbio) in 10% sheep serum (Solarbio) at RT for 1 h. Following removal of the blocking solution, the brain sections were incubated with primary antibodies Iba1 (Proteintech, Cat.10904-1-AP) and CD11b (Thermo Fisher, Cat. MA5-17857) overnight at 4° C. Following 3 washes with 0.01 M PBS (5 min each), the sections were incubated with Backlight plus secondary antibody (Abcam, Cat. ab150113; Cat.ab150080) at RT for 2 h. After 3 washes, the nuclei were stained with 4′, 6-diamidino-2-phenylindole (DAPI, Beyotime Biotech, Cat. C1006). […] The number of Iba1^+CD11b^+ double positive microglia were analyzed by Image J V1.8.0. […]

Data set [7] is described as follows: Plasma protein binding assay (equilibrium dialysis), human plasma. The data set is classed as in vitro ADME. As to conditions: pH 7.4. How it is done: (§1) Human and mouse plasma (150 μL) containing test compound (3 μM, final concentration) and sodium phosphate buffer (150 μL, 100 mM, pH 7.4) were added to the equilibrium dialysis device and equilibrated at 37° C. for 4.5 h with constant shaking. After equilibration, 10 μL of the plasma was taken out from the first half of the well and mixed with 50 μL of blank buffer, and later quenched with 200 μL of 0.05% formic acid in ACN containing 100 ng/mL of Loperamide, Phenacetin & Tolbutamide as internal standards. Similarly, 50 μL of […] was taken from the second half of the well and mixed with 10 μL of blank […] before quenching. […] All samples were centrifuged at 14,000 rpm for 5 min at 4° C. Warfarin and naltrexone were used as positive controls. Supernatant of all samples were analyzed by LC-MS/MS.

Data set [8] in a line: Plasma protein binding assay (equilibrium dialysis), mouse plasma. The data set is classed as in vitro ADME. As to conditions: pH 7.4. How it is done: as §1

In brackets after ≈: the same amount, converted by molar mass. Entries after “also recorded” stand apart in the source; their conditions may differ. Where two headings read alike, the source gives them in different places.

As to `COC(=O)C1=CNC=C(C(=O)OC)C1c1ccc(F)c(C(F)(F)F)c1` [Compound 103, Dimethyl 4-(4-fluoro-3-(trifluoromethyl)phenyl)-1,4-dihydropyridine-3,5-dicarboxylate], the “selectivity for KCa3.1 over other channels and a panel of ~100 molecular targets” value in data set [1] is listed as above 1000 fold. Further, the solubility at 90 min was 54.6 µM (≈ 19.6 µg/mL) in data set [2] (pH 1.5, aqueous buffer, PBS pH 1.5); 58.1 µM (≈ 20.9 µg/mL) in data set [2] (pH 5, aqueous buffer, PBS pH 5.0); at most 87.4 µM in data set [2] (pH 7.4, aqueous buffer, PBS pH 7.4). For the same molecule, the Kp at 14 days in data set [3] (25 mg/kg BID oral 14 days, Female mice) turned out to be 85.6; in data set [3] (25 mg/kg BID oral 14 days, Male mice), 36; in data set [3] (50 mg/kg BID oral 14 days, Female mice), 31.9; in data set [3] (50 mg/kg BID oral 14 days, Male mice), 19.6. For the same molecule, the concentration at 14 days in data set [3] (liver, 25 mg/kg BID oral 14 days, Female mice, read-out: Average Concentration Liver) came out at 8420 ng/g; in data set [3] (liver, 25 mg/kg BID oral 14 days, Male mice, read-out: Average Concentration Liver), 10100 ng/g; in data set [3] (liver, 50 mg/kg BID oral 14 days, Female mice, read-out: Average Concentration Liver), 12100 ng/g; in data set [3] (liver, 50 mg/kg BID oral 14 days, Male mice, read-out: Average Concentration Liver), 17500 ng/g; in data set [3] (plasma, 25 mg/kg BID oral 14 days, Female mice, read-out: Average Concentration Plasma), 100 ng/mL; in data set [3] (plasma, 25 mg/kg BID oral 14 days, Male mice, read-out: Average Concentration Plasma), 297 ng/mL. Further, the concentration at 14 days in data set [3] (plasma, 50 mg/kg BID oral 14 days, Female mice, read-out: Average Concentration Plasma) amounted to 401 ng/mL; in data set [3] (plasma, 50 mg/kg BID oral 14 days, Male mice, read-out: Average Concentration Plasma), 929 ng/mL. For the same molecule, the “reduction of infarct volume” value in data set [4] (10 mg/kg intraperitoneal twice daily, 7 days, rat MCAO) is reported as around 50%. The infarct volume entry in data set [4] (rat MCAO 60 min, 7 days reperfusion, vs vehicle and Edaravone 5 mg/kg) is “more effective than Edaravone; also recorded: effectively reduced infarct volume”. In data set [5], the neurological behavioral scores entry is “improves neurological behavior scores more effectively than Edaravone; also recorded: improved neurological behavioral scores”. In data set [6], the “number of Iba1+CD11b+ double positive activated microglia” value is reported as “significantly reduced; also recorded: effectively reduced”.
For the molecule `COC(=O)C1=C(C)NC(C)=C(C(=O)OC)C1c1ccc(F)c(C(F)(F)F)c1` [Compound 101], the fraction unbound at 4.5 h, 3 μM was 0.0073 in data set [7] and 0.0088 in data set [8].

The values are drawn from patent US20230416203A1, “POTENT AND SELECTIVE INHIBITORS OF THE CALCIUM-ACTIVATED POTASSIUM CHANNEL, KCA3.1, FOR USE AS PLATFORM THERAPEUTICS” (priority 2020, published 2023).
